The values below come from patent US11731965B2, “Tetrahydroprotoberberine compound, preparation method therefor and uses thereof, and pharmaceutical composition” (SHANGHAI INSTITUTE OF MATERIA MEDICA, CHINESE ACADEMY OF …, priority 2017, dated 2023).

Where a name gives a salt, the structure may show the parent alone.

The target in assay [1] is T1, human recombinant 5-HT1A receptor (Homo sapiens, UniProt P08908).
T1 construct: expressed in transfected cells; host or cells: HEK293
T1 sequence (P08908 1-422): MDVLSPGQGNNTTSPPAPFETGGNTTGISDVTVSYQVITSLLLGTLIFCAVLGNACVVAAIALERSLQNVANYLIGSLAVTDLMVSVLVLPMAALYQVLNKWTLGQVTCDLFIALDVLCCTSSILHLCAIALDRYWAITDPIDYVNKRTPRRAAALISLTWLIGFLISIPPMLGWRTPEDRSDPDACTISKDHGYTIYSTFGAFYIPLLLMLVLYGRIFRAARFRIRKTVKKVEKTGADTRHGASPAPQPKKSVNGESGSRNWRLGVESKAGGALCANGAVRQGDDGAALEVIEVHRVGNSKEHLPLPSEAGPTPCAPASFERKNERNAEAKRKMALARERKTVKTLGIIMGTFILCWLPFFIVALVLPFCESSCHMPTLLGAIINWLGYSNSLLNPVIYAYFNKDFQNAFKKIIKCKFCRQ
Put plainly: 5-HT1A agonistic activity test (LANCE cAMP, inhibition of cAMP production in HEK293 cells). The format is cell-based. Particulars: HEK293 cells expressing human recombinant 5-HT1A receptor; test concentration 0.1 nM to 10000 nM; read-out: 5-HT1A Agonistic Activity (EC50, nmol/L). The protocol:
• 3) 5-HT1A agonistic activity test
LANCE™ cAMP 384 Kit (PerkinElmer, USA) was used to test the agonistic effect of the compound on 5-HT1A receptor using the HEK293 cells expressing human recombinant 5-HT1A receptor. The 5-HT1A agonistic effect of the compound was evaluated by testing the inhibitory effect of the compound on cAMP production in HEK293 cells. The cAMP concentration test was performed according to the method described in the kit instructions. The test concentration of the compound was 0.1 nM to 10000 nM. 8-OH-DPAT was used as a positive control. The EC50 was calculated by Excelfit software.
For orientation: In TR-FRET formats the signal depends on donor and acceptor labels being close together.

Assay [2] concerns PCP-induced high spontaneous activity in mice. Put plainly: PCP-induced high spontaneous activity test in mice. The format is in vivo, Male ICR mice. The note with it: dose by gavage that significantly reduces PCP (7 mg/kg ip) induced high spontaneous activity of mice vs model group. The protocol: PCP (phencylidine) was dissolved in physiological saline to prepare a 7 mg/kg solution. The test compound was formulated with a 0.5% CMC-Na solution to a solution with suitable concentration, ready-to-use. Male ICR mice were 18-22 g. Mice were randomly divided into a solvent control group, a model control group, a positive control group, and each test drug group during the test. There were 8 mice in each group. Mice in each group were given each test drug by gavage. 45 minutes after the test drug was administered, mice were injected with a PCP (7 mg/kg) solution intraperitoneally. The spontaneous, open field video analysis system was used to record the mouse movement trajectory within 45 min after administration of test drug or saline, and then the mouse movement trajectory within 75 min after PCP administration. Spontaneous, open field video analysis system was used to analyze the mouse's movement trajectory, and the total distance of the movement of the mice in each group was counted. The result was expressed as mean±SD. Results were analyzed by one-way analysis of variance.

Assay [3] addresses T2, human recombinant D2 receptor (Homo sapiens, UniProt P14416).
T2 construct: expressed in transfected cells; host or cells: HEK293
Put plainly: D2 antagonistic activity test (LANCE cAMP, antagonism of dopamine inhibition of cAMP production in HEK293 cells). The note with it: HEK293 cells expressing human recombinant D2 receptor; test concentration 0.1 nM to 10000 nM; read-out: D2 Antagonistic Activity (IC50, nmol/L). The format is cell-based. The protocol:
LANCE™ cAMP 384 Kit (PerkinElmer, USA) was used to test the antagonism of the compound against the D1 receptor using the HEK293 cells expressing human recombinant D1 receptor. The D1 antagonism of the compound was evaluated by testing the antagonistic action of the compounds against dopamine on the induction of cAMP production in HEK293 cells. The cAMP concentration test was performed according to the method described in the kit instructions. The test concentration of the compound was 0.1 nM to 10000 nM. SCH23390 was used as a positive control. The IC50 was calculated by Excelfit software. The test results of some compounds were shown in Table 1. • 2) D2 antagonistic activity test LANCE™ cAMP 384 Kit (PerkinElmer, USA) was used to test the antagonism of the compound against the D2 receptor using the HEK293 cells expressing human recombinant D2 receptor. The D2 antagonism of the compound was evaluated by testing the antagonistic action of the compounds against dopamine on the inhibition of cAMP production in HEK293 cells. The cAMP concentration test was performed according to the method described in the kit instructions. The test concentration of the compound was 0.1 nM to 10000 nM. Risperidone was used as a positive control. The IC50 was calculated by Excelfit software. The test results of some compounds were shown in Table 1 (ND means the test was not performed).

Assay [4] has as its target T3, human recombinant D1 receptor (Homo sapiens, UniProt P21728).
T3 construct: expressed in transfected cells; host or cells: HEK293
The experiment in a line: D1 antagonistic activity test (LANCE cAMP, antagonism of dopamine-induced cAMP production in HEK293 cells). The note with it: HEK293 cells expressing human recombinant D1 receptor; test concentration 0.1 nM to 10000 nM; read-out: D1 Antagonistic Activity (IC50, nmol/L). It counts as cell-based. The protocol:
• 1) D1 antagonistic activity test
The D1 antagonism of the compound was evaluated by testing the antagonistic action of the compounds against dopamine on the induction of cAMP production in HEK293 cells. The cAMP concentration test was performed according to the method described in the kit instructions. The test concentration of the compound was 0.1 nM to 10000 nM. SCH23390 was used as a positive control. The IC50 was calculated by Excelfit software.

T3 sequence (P21728 whole entry): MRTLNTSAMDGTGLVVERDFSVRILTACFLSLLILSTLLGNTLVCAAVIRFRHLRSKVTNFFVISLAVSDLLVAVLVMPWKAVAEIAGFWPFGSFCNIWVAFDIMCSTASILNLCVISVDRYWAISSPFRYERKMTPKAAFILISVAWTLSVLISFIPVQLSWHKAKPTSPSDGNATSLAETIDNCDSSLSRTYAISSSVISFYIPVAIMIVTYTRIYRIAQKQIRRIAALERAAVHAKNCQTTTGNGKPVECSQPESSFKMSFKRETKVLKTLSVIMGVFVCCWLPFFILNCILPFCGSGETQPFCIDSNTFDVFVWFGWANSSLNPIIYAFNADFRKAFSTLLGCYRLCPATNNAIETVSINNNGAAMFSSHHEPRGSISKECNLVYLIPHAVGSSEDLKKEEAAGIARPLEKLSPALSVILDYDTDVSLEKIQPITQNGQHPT
T2 sequence (P14416 whole entry): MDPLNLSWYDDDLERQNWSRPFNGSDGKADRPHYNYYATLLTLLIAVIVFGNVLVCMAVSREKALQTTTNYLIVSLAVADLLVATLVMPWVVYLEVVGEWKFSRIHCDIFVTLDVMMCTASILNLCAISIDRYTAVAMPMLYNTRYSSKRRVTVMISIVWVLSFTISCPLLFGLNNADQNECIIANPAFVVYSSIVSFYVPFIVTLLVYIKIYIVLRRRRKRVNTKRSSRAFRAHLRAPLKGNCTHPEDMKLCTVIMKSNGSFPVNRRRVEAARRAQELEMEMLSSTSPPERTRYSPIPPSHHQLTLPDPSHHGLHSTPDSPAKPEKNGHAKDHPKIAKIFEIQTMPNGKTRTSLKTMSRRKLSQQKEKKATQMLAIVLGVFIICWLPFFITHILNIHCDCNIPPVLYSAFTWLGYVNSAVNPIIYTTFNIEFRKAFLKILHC

With `COc1cc2c(cc1NC(C)=O)[C@@H]1Cc3ccc(OC)c(OC)c3CN1CC2` [Example 14, (S)-2-acetamido-3,9,10-trimethoxy-6,8,13,13a4tetrahydro-5H-dibenzo[a,g] quinolizine hydrochloride], the EC50 in assay [1] was determined as 514 nmol/L. For the same compound, the “Effective Dose” value in assay [2] turned out to be 10 mg/kg.
Turning to `COc1cc2c(cc1OC)[C@@H]1Cc3ccc(OC)c(OCCO)c3CN1CC2` [Example 56, (S)-2,3,10-trimethoxy-9-hydroxyethoxy-6.8,13,13a-tetrahydro-5H-dibenzo[a,g] quinolizine], in assay [1], the EC50 came out at 150 nmol/L. For the same compound, the “Effective Dose” value in assay [2] is 20 mg/kg. In addition, the IC50 in assay [3] came to 2800 nmol/L; in assay [4], 1050 nmol/L.
On to `COc1cc2c(cc1C(C)=O)[C@@H]1Cc3ccc(OC)c(OC)c3CN1CC2` [Example 12, (S)-2-acetyl-3,9,10-trimethoxy-6,8,13,13a-tetrahydro-5H-dibenzo [a,g] quinolizine], for which, in assay [1], the EC50 amounted to 2300 nmol/L. Moreover, the IC50 in assay [3] came to 500 nmol/L; in assay [4], 240 nmol/L.
Turning to `COc1cc2c(cc1C(N)=O)[C@@H]1Cc3ccc(C(N)=O)c(OC)c3CN1CC2` [Example 38, (S)-2,10-dicarbamoyl-3,9-dimethoxy-6,8,13,13a-tetrahydro-5H-dibenzo[a,g] quinolizine], in assay [1], the EC50 stood at 4580 nmol/L. Also, the IC50 was 620 nmol/L in assay [3] and 3400 nmol/L in assay [4].
Consider `COc1cc2c(cc1OC)[C@@H]1Cc3ccc(OC)c(OC4CC4)c3CN1CC2` [Example 57, (S)-2,3,10-trimethoxy-9-cyclopropoxy-6,8,13,13a-tetrahydro-5H-dibenzo[a,g] quinolizine hydrochloride], for which the EC50 in assay [1] came to 110 nmol/L. The “Effective Dose” value in assay [2] is listed as 20 mg/kg.
Take `COc1cc2c(cc1C#N)[C@@H]1Cc3ccc(C#N)c(OC)c3CN1CC2` [Example 37, (S)-2,10-dicyano-3,9-dimethoxy-6,8,13,13a-tetrahydro-5H-dibenzo [a,g] quinolizine]: the EC50 in assay [1] worked out at 3030 nmol/L. Also, the IC50 in assay [3] was determined as 19 nmol/L; in assay [4] it was 211 nmol/L.
As to `COc1cc2c(cc1OC)[C@@H]1Cc3ccc(OC)c(CNC(C)=O)c3CN1CC2` [Example 23, (S)-2,3,10-trimethoxy-9-acetylaminomethyl-6,8,13,13a-tetrahydro-5H-dibenzo[a,g] quinolizine], the EC50 in assay [1] is 1900 nmol/L.
`COc1ccc2c(c1OC)CN1CCc3cc(C#N)c(C#N)cc3C1C2` (stereo not shown) [Example 35, 2,3-dicyano-9,10-dimethoxy-6,8,13,13a-tetrahydro-5H-dibenzo[a,g] quinolizine]: the EC50 in assay [1] amounted to 5900 nmol/L.
For the compound `COc1cc2c(cc1CO)[C@@H]1Cc3ccc(OC)c(OC)c3CN1CC2` [Example 7, (S)-2-hydroxymethyl-3,9,10-trimethoxy-6,8,13,13a-tetrahydro-5H-dibenzo[a,g] quinolizine], the “Effective Dose” value in assay [2] worked out at 10 mg/kg. For the same compound, the IC50 in assay [3] turned out to be 770 nmol/L; in assay [4] it was 61 nmol/L.
Turning to `COc1cc2c(cc1N)[C@@H]1Cc3ccc(N)c(OC)c3CN1CC2` [Example 33, (S)-2,10-diamino-3,9-dimethoxy-6,8,13,13a-tetrahydro-5H-dibenzo [a,g] quinolizine], in assay [2], the “Effective Dose” value is listed as 20 mg/kg. Further, the IC50 in assay [3] came to 440 nmol/L; in assay [4], 270 nmol/L.
The like results for `COc1cc2c(cc1OC)[C@@H]1Cc3ccc(OC)c(CO)c3CN1CC2` [Example 25, (S)-2,3,10-trimethoxy-9-hydroxymethyl-6,8,13,13a-tetrahydro-5H-dibenzo[a,g] quinolizine] were, in that order, 20 mg/kg, 2300 nmol/L and 1700 nmol/L.
As to `COc1ccc2c(c1OC)CN1CCc3cc4c(cc3C1C2)OCC(=O)N4` (stereo not shown) [Example 47, 10,11-Dimethoxy-4,6,7,9,14,14a-Hexahydroisoquinolino[3,2-a][1,4] oxazino[3,2-g]isoquinoline-3(2H)-one], in assay [2], the “Effective Dose” value came out at 10 mg/kg. The IC50 was determined as 146 nmol/L in assay [3] and 19.9 nmol/L in assay [4].
As for `COc1cc2c(cc1OC)[C@@H]1Cc3ccc(OC)c(C(C)=O)c3CN1CC2` [Example 21, (S)-2,3,10-trimethoxy-9-acetyl-6,8,13,13a-tetrahydro-5H-dibenzo [a,g] quinolizine], the EC50 in assay [1] was 238 nmol/L. The “Effective Dose” value in assay [2] is listed as 20 mg/kg. For the same compound, the IC50 in assay [4] came out at 1500 nmol/L.
With `COc1cc2c(cc1OC1CC1)[C@@H]1Cc3ccc(OC)c(OC)c3CN1CC2` [Example 53, (S)-2-cyclopropoxy-3,9,10-trimethoxy-6,8,13,13a-tetrahydro-5H-dibenzo[a,g] quinolizine hydrochloride], the “Effective Dose” value in assay [2] turned out to be 20 mg/kg. Besides, the IC50 in assay [3] is 1300 nmol/L; in assay [4] it was 960 nmol/L.
The matching figures for `COc1ccc2c(c1OC)CN1CCc3cc(OC)c4[nH]c(=O)[nH]c4c3[C@@H]1C2` [Example 40, (S)-4,10,11-trimethoxy-3,6,7,9,14,14a-hexahydroimidazo[4,5-h] isoquinolino[3,2-a]isoquinoline-2(1H)-one]: 20 mg/kg, 27 nmol/L and 4 nmol/L.
In the case of `COc1ccc2c(c1OC)CN1CCc3cc4c(cc3C1C2)C(=O)NC4=O` (stereo not shown) [Example 36, 9,10-dimethoxy-5,6,13,13a-tetrahydroisoquinolino[3,2-a]pyrrolo [3,4-g]isoquinoline-1,3(2H,8H)-dione], the “Effective Dose” value in assay [2] is on record as 10 mg/kg. Moreover, the IC50 was 427 nmol/L in assay [3] and 26.2 nmol/L in assay [4].
The matching figures for `C=CCOc1cc2c(cc1OC)CCN1Cc3c(ccc(OC)c3OC)C[C@@H]21` [Example 52, (S)-2-allyloxy-3,9,10-trimethoxy-6,8,13,13a-tetahydro-5H-dibenzo [a,g] quinolizine]: 20 mg/kg, 450 nmol/L and 220 nmol/L.
The like results for `COc1cc2c(cc1N)[C@@H]1Cc3ccc(OC)c(OC)c3CN1CC2` [Example 13, (S)-2-amino-3,9,10-trimethoxy-6,8,13,13a-tetrahydro-5H-dibenzo [a,g] quinolizine hydrochloride] were, in that order, 10 mg/kg, 280 nmol/L and 140 nmol/L.
`COc1cc2c(cc1OC)[C@@H]1Cc3ccc(C#N)c(OC)c3CN1CC2` [Example 27, (S)-2,3,9-trimethoxy-10-cyano-6,8,13,13a-tetrahydro-5H-dibenzo[a,g] quinolizine]: the EC50 in assay [1] was determined as 1200 nmol/L. Moreover, the IC50 in assay [3] was found to be 1000 nmol/L; in assay [4] it was 311 nmol/L.
